Like-named read-outs stand apart in the source and are kept apart here.
Assays:
[1] = system: Klebsiella pneumoniae expressing VIM-1 (IHMA599644); type: cell-based; conditions: for Klebsiella pneumoniae expressing VIM-1 (IHMA599644) MITC95: with imipenem 1 μg/ml, 95% inhibition of bacterial growth; for Klebsiella pneumoniae MITC95: VIM-1 strain IHMA599644, with imipenem 1 μg/ml, 95% inhibition of growth
Outline: (§1)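 Clinical isolates (E. coli NDM-1, S. marcescens IMP-1, K. pneumoniae VIM-1) were diluted 1:100 from saline suspension into 1.1×CAMHB and exposed to test compound with imipenem at 1 μg/ml. Plates were incubated at 35° C for 22 hours to 24 hours, and growth was read by absorbance.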

[2] = system: Serratia marcescens expressing IMP-1 (CL5741); type: cell-based; conditions: for Serratia marcescens expressing IMP-1 (CL5741) MITC95: with imipenem 1 μg/ml, 95% inhibition of bacterial growth; for Serratia marcescens MITC95: IMP-1 strain CL5741, with imipenem 1 μg/ml, 95% inhibition of growth
Outline: as §1

[3] = system: Escherichia coli expressing NDM-1 (CLB30005, CLB30016); type: cell-based; conditions: with imipenem 1 μg/ml; for Escherichia coli expressing NDM-1 (CLB30016) MITC95: 95% inhibition of bacterial growth; for Escherichia coli MITC95: NDM-1 strain, 95% inhibition of growth
Outline: as §1

[4] = system: Pseudomonas aeruginosa efflux− (MB9799), IMP-1; type: cell-based; conditions: C, D serine β-lactamase inhibitor closely related to relebactam; for P. aeruginosa expressing IMP-1, efflux − (MB9799) MITC95: concentration restoring susceptibility to imipenem at 2 μg/mL in the presence of a class A
Outline: (§2)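 Microbroth MIC tests in PAO1-background strains with fixed imipenem and/or ceftazidime, usually at the CLSI breakpoint, plus fixed class A/C β-lactamase inhibitor against AmpC. MBL inhibitor titrated; concentration restoring susceptibility recorded and compared as fold difference between efflux+ MB9798 and efflux− MB9799.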

[5] = system: Pseudomonas aeruginosa MB9798 vs MB9799
Outline: as §2

[6] = system: Pseudomonas aeruginosa efflux+ (MB9798), IMP-1; type: cell-based; design: Concentration of metallo-β-lactamase inhibitor which restores susceptibility of efflux + (MB9798) strain to imipenem: unit not given here; conditions: C, D serine β-lactamase inhibitor closely related to relebactam; for P. aeruginosa expressing IMP-1, efflux + (MB9798) MITC95: concentration restoring susceptibility to imipenem at 2 μg/mL in the presence of a class A
Outline: as §2

IMP-1 = IMP-1 (Serratia marcescens, UniProt P52699); test: biochemical; type: biochemical; conditions: fluorescence assay, CCF2-FA substrate, 2 pM enzyme, 2 hours at 25° C.; read-out: IMP-1 IC50
Outline: (§3)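 Fluorescence assay, CCF2-FA substrate (cephalosporin core linking 7-hydroxycoumarin to fluorescein); inhibitor + MBL + substrate, 2 h, 25° C. IC50 by 4-parameter fit, semi-log plot.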

NDM-1 = NDM-1 (Klebsiella pneumoniae, UniProt C7C422); test: biochemical; type: biochemical; conditions: fluorescence assay, CCF2-FA substrate, 1 pM enzyme, 2 hours at 25° C.; read-out: NDM-1 IC50
Outline: as §3

VIM-1 = VIM-1 (Pseudomonas aeruginosa (strain ATCC 15692 / DSM 22644 / CIP 104116 / JCM 14847 / LMG 12228 / 1C / PRS 101 / PAO1), UniProt A0A0F7KYQ8); test: biochemical; conditions: CCF2-FA substrate, 30 pM enzyme, 2 hours at 25° C.
Outline: as §3

[7] = ratio MITC95 PA_9798/MITC95 PA_9799
[8] = fluorescence assay, read-out: VIM-1 IC50

Chain of NDM-1 (C7C422 whole entry, looked up, species assumed): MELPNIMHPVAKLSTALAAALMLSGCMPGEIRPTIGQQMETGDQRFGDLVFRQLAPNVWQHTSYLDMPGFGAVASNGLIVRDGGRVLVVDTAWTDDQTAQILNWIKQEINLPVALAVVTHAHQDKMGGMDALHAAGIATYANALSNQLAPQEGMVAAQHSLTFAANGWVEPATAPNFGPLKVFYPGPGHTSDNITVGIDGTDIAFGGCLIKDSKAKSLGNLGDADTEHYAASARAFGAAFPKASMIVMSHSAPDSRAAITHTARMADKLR
Chain of IMP-1 (P52699 whole entry, looked up, species assumed): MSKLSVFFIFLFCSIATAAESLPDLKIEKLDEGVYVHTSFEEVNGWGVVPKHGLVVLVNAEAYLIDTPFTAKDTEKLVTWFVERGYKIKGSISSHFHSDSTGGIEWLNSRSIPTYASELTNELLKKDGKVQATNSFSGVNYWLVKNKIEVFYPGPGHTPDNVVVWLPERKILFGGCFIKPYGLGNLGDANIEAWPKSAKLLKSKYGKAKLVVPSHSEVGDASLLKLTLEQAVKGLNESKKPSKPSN

SMILES	Klebsiella pneumoniae expressing VIM-1 (IHMA599644) MITC95 [1]	Serratia marcescens expressing IMP-1 (CL5741) MITC95 [2]	Escherichia coli expressing NDM-1 (CLB30016) MITC95 [3]	P. aeruginosa expressing IMP-1, efflux − (MB9799) MITC95 [4]	Efflux ratio [5, 7]	P. aeruginosa expressing IMP-1, efflux + (MB9798) MITC95 [6]	IC50 (IMP-1)	IC50 (NDM-1)	IC50 (VIM-1; VIM-1 IC50, fluorescence assay)	IC50 (VIM-1; [8])	Klebsiella pneumoniae MITC95 [1]	Serratia marcescens MITC95 [2]	Escherichia coli MITC95 [3]	Concentration of metallo-β-lactamase inhibitor which restores susceptibility of efflux − (MB9799) strain to imipenem ([4]; efflux− MB9799, imipenem at 2 μg/mL, in the presence of a class A)	Efflux ratio ([5]; fold difference between efflux+ (MB9798) and efflux− (MB9799) strains, imipenem at 2 μg/mL)	Concentration of metallo-β-lactamase inhibitor which restores susceptibility of efflux + (MB9798) strain to imipenem ([6]; efflux+ MB9798, imipenem at 2 μg/mL, in the presence of a class A)
CC1(CN)CN(S(=O)(=O)c2ccc(-c3cccc4sc(N)nc34)c(-c3nnn[nH]3)c2S(N)(=O)=O)C1.O=C(O)C(F)(F)F [Example 101, (1-((4-(2-aminobenzo[d]thiazol-4-yl)-2-sulfamoyl-3-(1H-tetrazol-5-yl)phenyl)sulfonyl)-3-methylazetidin-3-yl)methanaminium 2,2,2-trifluoroacetate]	6.25 µM	3.125 µM	3.125 µM	3.125 µM	1.00	3.125 µM	1.25 nM	0.288 nM	0.744 nM	–	–	–	–	–	–	–
CNS(=O)(=O)c1ccc(-c2cccc3sc(N)nc23)c(-c2nn[nH]n2)c1S(N)(=O)=O [Example 152, 4-(2-aminobezno[d]thiazol-4-yl)-N1-methyl-3-(2H-tetrazol-5-yl)benzene-1,2-disulfonamide]	6.25 µM	3.125 µM	3.125 µM	1.563 µM	8.00	12.5 µM	0.264 nM	0.072 nM	–	0.195 nM	–	–	–	–	–	–
COC(=O)[C@H]1C[C@@H](NS(=O)(=O)c2ccc(-c3cccc4sc(N)nc34)c(-c3nnn[nH]3)c2S(N)(=O)=O)CN1 [Example 128, Methyl (2R,4R)-4-((4-(2-aminobenzo[d]thiazol-4-yl)-2-sulfamoyl-3-(1H-tetrazol-5-yl)phenyl)sulfonamido)pyrrolidine-2-carboxylate]	12.5 µM	6.25 µM	3.125 µM	6.25 µM	1.00	6.25 µM	0.177 nM	0.0443 nM	0.199 nM	–	–	–	–	–	–	–
NCCNS(=O)(=O)c1ccc(-c2cccc3cn[nH]c23)c(-c2nn[nH]n2)c1S(N)(=O)=O [Example 9, N^1-(2-aminoethyl)-4-(1H-indazol-7-yl)-3-(2H-tetrazol-5-yl)benzene-1,2-disulfonamide]	1.563 µM	1.563 µM	0.7813 µM	0.7813 µM	0.50	0.3906 µM	0.171 nM	0.0844 nM	–	0.133 nM	–	–	–	–	–	–
NCCn1nc2cccc(-c3ccc(S(=O)(=O)N[C@@H]4CCNC4)c(S(N)(=O)=O)c3-c3nn[nH]n3)c2n1 [Example 279, (R)-4-(2-(2-aminoethyl)-2H-benzo[d][1,2,3]triazol-4-yl)-N1-(pyrrolidin-3-yl)-3-(2H-tetrazol-5-yl)benzene-1,2-disulfonamide]	–	–	–	0.7813 µM	1.00	0.7813 µM	3.03 nM	0.232 nM	0.133 nM	–	0.7813 µM	0.7813 µM	0.7813 µM	–	–	–
Nc1nc2c(-c3ccc(S(=O)(=O)NC[C@H](N)CO)c(S(N)(=O)=O)c3-c3nn[nH]n3)cccc2[nH]1 [Example 191, 4-(2-amino-1H-benzo[d]imidazol-4-yl)-N^1—((S)-2-amino-3-hydroxypropyl)-3-(2H-tetrazol-5-yl)benzene-1,2-disulfonamide]	0.8906 µM	0.8906 µM	0.25 µM	0.4453 µM	1.00	0.4453 µM	0.433 nM	0.0469 nM	–	0.173 nM	–	–	–	–	–	–
Nc1ncccc1-c1ccc(S(=O)(=O)NC[C@@H]2CNCCN2)c(S(N)(=O)=O)c1-c1nn[nH]n1 [Example 313, (S)-4-(2-aminopyridin-3-yl)-N1-(piperazin-2-ylmethyl)-3-(2H-tetrazol-5-yl)benzene-1,2-disulfonamide]	–	–	–	1.563 µM	2.00	3.125 µM	1.3 nM	0.0817 nM	0.149 nM	–	3.125 µM	0.7813 µM	0.3906 µM	–	–	–
NCCCNC(=O)c1cccc(-c2ccc(S(=O)(=O)NCCN)c(S(N)(=O)=O)c2-c2nn[nH]n2)c1 [Example 341, 4′-(N-(2-aminoethyl)sulfamoyl)-N-(3-aminopropyl)-3′-sulfamoyl-2′-(2H-tetrazol-5-yl)-[1,1′-biphenyl]-3-carboxamide]	–	–	–	0.7813 µM	2.00	1.563 µM	4.13 nM	1.71 nM	–	0.474 nM	3.125 µM	1.563 µM	0.7813 µM	–	–	–
NCCNS(=O)(=O)c1ccc(-c2cccc3sc(CN)nc23)c(-c2nn[nH]n2)c1S(N)(=O)=O [Example 345, N^1-(2-aminoethyl)-4-(2-(aminomethyl)benzo[d]thiazol-4-yl)-3-(2H -tetrazol-5-yl)benzene-1,2-disulfonamide]	–	–	–	0.7813 µM	1.00	0.7813 µM	0.676 nM	0.193 nM	–	0.129 nM	0.7813 µM	0.7813 µM	0.5859 µM	–	–	–
Nc1ccc(-c2ccc(S(=O)(=O)N[C@H]3CN[C@H](CO)C3)c(S(N)(=O)=O)c2-c2nn[nH]n2)cn1 [Example 411]	–	–	–	–	–	–	0.408 nM	0.117 nM	–	0.177 nM	3.125 µM	1.563 µM	0.7813 µM	1.563	1.00	1.563

From US10221163B2 (priority 2015, dated 2019)
